Laboratory results as given in patent US10844023B2 (Washington University, priority 2017, dated 2020).
Where two headings read alike, the source gives them in different places.

Key:
Mfn2 null MEFs = experiment: Mitochondrial elongation (aspect ratio) fusogenicity assay; format: cell-based, mouse; details: for Fusogenic activity: mitochondrial elongation / fusion; for EC50: Mus musculus, increase in mitochondrial aspect ratio
MFN2 HR2 = molecular target: T1, MFN2 HR2 (Homo sapiens, UniProt O95140); experiment: HR1 peptide-HR2 target binding assay; details: FITC minipeptide 374-384 at HR2 binding site
T1 construct: host or cells: synthetic peptide (note in the listing); immobilised on Ni-NTA resin
T1 sequence (O95140 with tags, fused parts or gaps limits assumed): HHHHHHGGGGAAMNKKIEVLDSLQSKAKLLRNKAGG
Text: The Mfn-derived fusion-promoting and -inhibiting mini-peptides (simulated to obtain the chemical Mfn agonists in TABLE 1 and TABLE 2) were modified from amino acid heptad repeats (HR) in the HR1 domain and predicted to interact with their counterparts in the carboxyl terminus HR2 domain within the Mfn stalk region (see e.g., FIG. 1, top panel). A high-throughput binding assay was designed whereby the target HR2 peptide sequences, modified to include amino terminal 6×His tags and Gly linkers, were bonded to Ni-chelate resin (20 μg/ml) and used as immobilized “receptor” for amino-FITC-tagged Mfn2 374-384 (agonist ligand) in which the Ser analogous to Ser378 was replaced with Asp to confer the negative charge essential for activity. For antagonist studies the ligand was amino-FITC-tagged Mfn2 406-418. The FITC peptide ligands are suspended at 1 mM in 30% DMSO, 70% water (to minimize spontaneous aggregation) and diluted into binding buffer (de-ionized water) to a final concentration of 25 μM in the presence or absence of competing compound. Dose-dependent loss of resin-bound FITC signal (485 nm excitation/538 nm emission) measured in a 96 well spectrofluorometer represents binding of compound to its HR2 target (see e.g., FIG. 10, FIG. 11). Either the ligand peptide or the receptor peptide can be modified to represent mutations, variations, or posttranslational modifications of Mfn2. […]
Target HR2 peptide sequence modified to include amino terminal 6×His tags and Gly linkers, were bonded to Ni-NTA resin (4.4 μg/ml) (Quiagen) and used as immobilized “receptor” for amino-FITC-tagged Mfn2 374-384 (ligand) in which the Ser analogous to Ser378 was replaced with Asp to confer the negative charge essential for activity. […] Resin-bound FITC signal (485 nm excitation/538 nm emission) measured in a 96 well spectrofluorometer (Spectramax M5e, Molecular Devices) represented binding to HR2 target. Competition binding isotherms were plotted and IC50 values calculated using Prism 7 (GraphPad).

[1] = tested on: MFN2 Asp^378 and Ala^378 mutants; experiment: Mitochondrial fusion with MFN2 Ser378 mutants (Asp378, Ala378); format: cell-based, human
MFN2 T105M = experiment: Reversal of mitochondrial dysmorphology provoked by MFN2 T105M in MEFs; format: cell-based, mouse
[2] = tested on: cultured neurons expressing MFN2 T105M; experiment: Cultured mouse neurons expressing CMT2A mutant MFN2; format: cell-based
Procedure: Neonatal mouse hippocampal neurons were cultured from brains of one day old Mfn2 T105M or non-transgenic sibling mouse pups as described. After 10 days of differentiating culture neurons were infected with Adeno-Cre to induce Mfn2 T105M expression or Adeno-βgal as a control (50 MOI). After an additional 72 hours mitofusin agonists or DMSO vehicle were added. For static confocal imaging neuronal mitochondria were labeled with adenoviral-expressed mitoGFP plus TMRE. Autophagy was measured by LC3 aggregation in neurons infected with adenoviral LC3-GFP. For time-lapse studies of mitochondrial trafficking bi-cistronic Adeno-Cre/GFP marked Cre expression and mitochondria were labeled with adeno-mitoDsRed. Confocal live cell images were acquired with a time-lapse of 1 frame every 90 seconds for 1 hour.

[3] = tested on: MFN2 T105M sciatic nerves; experiment: Sciatic nerve axonal mitochondrial motility, agonist applied to the excised nerve; design: species or system mouse
Procedure: Sciatic nerves of 12-18 week old male or female MFN2 T105M mice were removed en bloc with the lumbar spine and axotomy at the tibial nerve, stained with TMEM ([…]) for 30 minutes in prewarmed Neurobasal Medium without phenol red (Thermo Fisher Scientific) at room temperature, washed, and maintained on the stage of a Nikon A1Rsi Confocal Microscope at 37 degrees C. for time-lapse confocal studies. Images were acquired with a 40×oil immersion objective at 1 frame every 5 or 10 seconds for sequential 10 minute periods. Mitofusin agonist chimera B-A/I was added after the first 10 minute imaging period (final concentrations of […]) and nerve axons imaged for another 40 minutes. Because there was no difference in mitochondrial trafficking or response to mitofusin agonist between male and female mice, the data were combined.

[4] = tested on: ALS and HD patient-derived fibroblasts; experiment: Mitochondrial health assays in ALS and HD patient-derived fibroblasts; format: cell-based, human
Procedure: HD patient-derived fibroblast cell lines (GM04693 from patient and GM05539 from patient) were purchased from Invitrogen. ALS patient-derived fibroblasts (ALS 1: ND29509 from patient having SOD1 mutation; ALS 2: ND30327 having FUS1 mutation) and fibroblasts of control healthy individuals were purchased from Coriell Institute, USA. All fibroblast cultures were maintained in MEM supplemented with 15% (v/v) FBS and 1% (v/v) penicillin/streptomycin at 37° C. in 5% CO2-95% air. Galactose media was used, to increase mitochondria-dependent metabolism oxidative phosphorylation. Human fibroblasts were switched to grow for 48 h in DMEM deprived of glucose and containing galactose (4.5 g/I), 1% FBS, 5 mM sodium pyruvate and 2 mM L-glutamine for the studies.
Cells cultured in 8-well chamber slides were washed with cold PBS, fixed in 4% formaldehyde, and permeabilized with 0.1% Triton X-100. After incubation with 2% normal goat serum (to block nonspecific staining), fixed cells were incubated overnight at 4° C. with TOM20 antibody (1:500) (Santa Cruz, USA). Cells were washed with PBS and incubated for 60 minutes with FITC-conjugated goat anti-rabbit IgG (1:500 dilution). The cells were then washed gently with PBS and counterstained with Hoechst 33342 (1:10,000 dilution, Molecular Probes) to visualize nuclei. The coverslips were mounted with Slow-fade anti-fade reagent (Invitrogen), and images were acquired at 60×using an All-in-One Fluorescence Microscope BZ-X700 (Keyence).
Cells were incubated with tetra-methyl-rhodamine methyl ester (TMRM, 25 nM, Invitrogen) in HBSS (Hank's balanced salt solution) for 30 min at 37° C., per the manufacture's protocol, and the fluorescence was analyzed to measure mitochondrial membrane potential. All data were normalized with respect to the fluorescence intensity of control cells. To determine mitochondrial ROS production, cells were treated with 5 μM MitoSOX™ Red, a mitochondrial superoxide indicator (Invitrogen) for 20 min at 37° C., according to the manufacturer's protocol, and fluorescence was analyzed using SpectraMax M2e (Molecular devices).

[5] = Plasma protein binding (equilibrium dialysis); format: in vitro ADME
Procedure: (§1) Plasma protein binding was measured using equilibrium dialysis; % bound=(1-[free compound in dialysate]/[total compound in retentate])×100. Plasma stability of […] compound in clarified freeze-thawed plasma was assessed by LC-MS/MS of supernatants after protein precipitation; 120 min data are reported for studies including 0, 10, 30, 60, and 120 min. Microsome stability of […] compound in liver microsomes (0.5 mg/ml) after 0, 5, 10, 20, 30, 60 min. incubation was assessed by LC/MS/MS of reaction extracts.

[6] = Plasma protein binding, mouse; format: in vitro ADME; details: read-out: plasma protein bound in the mouse (converted)
Procedure: as §1

[7] = Liver microsome stability; format: in vitro ADME
Procedure: as §1

[8] = Parallel artificial membrane permeability assay (PAMPA); format: in vitro ADME
P-gp/MDR1 = P-gp/MDR1 (Homo sapiens, UniProt P08183); experiment: P-gp/MDR1 transport; format: in vitro ADME
P-gp/MDR1, sequence (P08183 whole entry): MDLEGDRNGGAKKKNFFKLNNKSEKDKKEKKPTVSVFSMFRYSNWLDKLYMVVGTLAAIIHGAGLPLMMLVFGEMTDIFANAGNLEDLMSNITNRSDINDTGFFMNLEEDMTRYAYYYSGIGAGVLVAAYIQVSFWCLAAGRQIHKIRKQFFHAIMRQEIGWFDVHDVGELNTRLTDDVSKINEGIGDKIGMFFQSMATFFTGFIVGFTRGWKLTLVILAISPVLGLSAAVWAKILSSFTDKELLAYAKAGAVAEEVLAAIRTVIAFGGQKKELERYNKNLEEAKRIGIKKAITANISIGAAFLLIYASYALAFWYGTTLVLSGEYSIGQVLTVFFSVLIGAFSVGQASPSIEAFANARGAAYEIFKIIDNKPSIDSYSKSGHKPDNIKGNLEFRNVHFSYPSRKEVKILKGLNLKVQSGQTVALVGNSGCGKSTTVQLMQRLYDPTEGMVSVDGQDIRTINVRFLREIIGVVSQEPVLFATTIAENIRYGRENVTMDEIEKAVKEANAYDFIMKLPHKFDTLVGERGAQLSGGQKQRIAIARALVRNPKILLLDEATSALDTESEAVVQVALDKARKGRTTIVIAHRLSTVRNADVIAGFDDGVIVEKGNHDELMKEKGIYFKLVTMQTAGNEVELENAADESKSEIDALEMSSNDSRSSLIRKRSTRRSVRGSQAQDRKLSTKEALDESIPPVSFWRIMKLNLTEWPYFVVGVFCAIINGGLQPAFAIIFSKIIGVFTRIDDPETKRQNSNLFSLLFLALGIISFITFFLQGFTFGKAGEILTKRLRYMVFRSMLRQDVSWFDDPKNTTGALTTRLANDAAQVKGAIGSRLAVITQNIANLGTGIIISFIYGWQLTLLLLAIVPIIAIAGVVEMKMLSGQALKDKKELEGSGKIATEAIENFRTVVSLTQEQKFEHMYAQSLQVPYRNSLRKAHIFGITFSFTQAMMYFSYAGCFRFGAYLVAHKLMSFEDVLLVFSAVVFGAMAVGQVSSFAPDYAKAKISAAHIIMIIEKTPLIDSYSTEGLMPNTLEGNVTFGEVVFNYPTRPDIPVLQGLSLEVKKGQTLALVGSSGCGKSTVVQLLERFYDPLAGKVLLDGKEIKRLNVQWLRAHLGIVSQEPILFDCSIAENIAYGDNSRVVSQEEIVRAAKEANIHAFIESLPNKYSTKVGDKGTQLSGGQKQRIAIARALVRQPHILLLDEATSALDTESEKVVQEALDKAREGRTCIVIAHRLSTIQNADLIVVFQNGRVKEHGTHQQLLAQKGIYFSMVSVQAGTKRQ

[9] = In vivo pharmacokinetics in mice; details: mouse; for concentration at 2 h: plasma, intramuscular, 1 mg/kg
Procedure: (A) Three mice each were administered 1 mg/kg agonist IV, IP, or IM. Graphs are mean plasma concentration for each administration route. (B) Results for individual mice were administered 1 mg/kg indicated agonist IM.

CMT2A MFN2 T105M mice = experiment: In vivo sciatic nerve mitochondrial motility in CMT2A mice; design: species or system mouse; details: IM, 2 mg/kg, assessed 4 hours later
Procedure: Sciatic nerve mitochondrial motility was measured 4 hours later. Results described in FIG. 58 are for 2 CMT2A mice per group.

[10] = Solubility in 50 mM phosphate buffer (pH 7.4); format: physicochemical
Plasma stability = format: in vitro ADME
Procedure: as §1

[11] = tested on: Mfn1/Mfn2 double null MEFs; experiment: Mitochondrial elongation in Mfn1/Mfn2 double null MEFs; format: cell-based, mouse
Text: A cultured murine embryonic fibroblast assay system was used in which mitochondrial elongation (an increase in aspect ratio) reflects enhanced mitochondrial fusion.

[12] = ALS and HD patient-derived fibroblasts

Row | SMILES | Fusogenic activity (Mfn2 null MEFs) | Selectivity of fusogenic effect for phosphomimic Asp378 vs nonphosphorylatable Ala378 MFN2 [1] | Mitochondrial motility in MFN2 T105M sciatic nerves [3] | EC50 (Mfn2 null MEFs) | Plasma protein binding [5] | Liver microsome stability [7] | Passive diffusion across lipid-infused artificial membrane (PAMPA, words) [8] | P-gp mediated transport (P-gp/MDR1) | other results
1 | CC1CCCCC1NC(=O)NCCSc1nnc(C2CC2)n1-c1ccccc1 (racemic) [B-A/I, 1-(2-((5-cyclopropyl-4-phenyl-4H-1,2,4-triazol-3-yl)thio)ethyl)-3-(2-methylcyclohexyl)urea] | potently stimulated mitochondrial fusion | non-selective | restored mitochondrial motility to within normal levels | – | – | – | – | – | Binding to / competition at HR2 target (MFN2 HR2): competed for minipeptide binding at the MFN2 HR2 interaction site; Reversal of mitochondrial dysmorphology provoked by MFN2 T105M (MFN2 T105M): as effective as the combination of Cpds A+B; Mitochondrial motility in cultured neurons expressing MFN2 T105M [2]: restored mitochondrial motility; Mitochondrial ROS levels [4, 12]: reduces mitochondrial ROS levels; Mitochondrial membrane potential [4, 12]: improves mitochondrial membrane potential; Mitochondrial structural defects [4, 12]: enhances mitochondrial structural defects; Effect on fibroblasts from control subjects ([4]; control fibroblasts): has no effect on fibroblasts from control subjects
2 | CCn1c(CCCNC(=O)NC2CCOCC2)nnc1C1CC1 [Mitolityn-4, 1-(3-(5-cyclopropyl-4-ethyl-4H-1,2,4-triazol-3-yl)propyl)-3-(tetrahydro-2H-pyran-4-yl)urea] | highest potency | – | – | ~0.003 µM | low plasma protein binding | stability in the liver microsome assay | no passive diffusion across lipid membrane | no reverse transport by P-gp | fraction unbound [6]: 0.888; concentration at 2 h ([9]; 1 mg/kg IM, read-out: total plasma drug concentration 2 hours after IM administration): 7.5 ng/mL; concentration at 2 h ([9]; IM, from total concentration and protein binding, read-out: free drug concentration 2 hours after IM administration): ~6.66 ng/mL; concentration at 2 h ([9]; IM, read-out: free drug concentration 2 hours after IM administration): ~20 nM
3 | CC1CCCCC1NC(=O)NCCCc1nnc(C2CC2)n1-c1ccccc1 (stereo not drawn) [Regeneurin-C, 1-(3-(5-cyclopropyl-4-phenyl-4H-1,2,4-triazol-3-yl)propyl)-3-(2-methylcyclohexyl)urea] | – | – | – | – | – | – | excellent passive diffusion | actively transported by P-gp/MDR1 | total plasma drug concentration 2 hours after IM administration ([9]; 1 mg/kg IM): undetectable
4 | O=C(NCCCc1nnc(C2CC2)n1-c1ccccc1)NC1CCOCC1 [Regeneurin-C/O, 1-(3-(5-cyclopropyl-4-phenyl-4H-1,2,4-triazol-3-yl)propyl)-3-(tetrahydro-2H-pyran-4-yl)urea] | – | – | – | – | – | – | – | – | Sciatic nerve axon mitochondrial motility in vivo (CMT2A MFN2 T105M mice): reverses the characteristic mitochondrial immobility in sciatic nerve axons
5 | CC1CCCCC1NC(=O)NCCSc1nnc(C2CC2)n1-c1ccccc1 (stereo not drawn) [Regeneurin-S, 1-(2-((5-cyclopropyl-4-phenyl-4H-1,2,4-triazol-3-yl)thio)ethyl)-3-(2-methylcyclohexyl)urea] | – | – | rapidly correct mitochondrial dysmotility | – | highly protein bound | rapidly degraded by liver microsomes | – | – | Solubility [10]: soluble; Plasma stability (Plasma stability): stable in plasma
6 | CC1CCCCC1NC(=O)NCCSCc1ccccc1 (stereo not drawn) [compound A, 1-[2-(benzylsulfanyl)ethyl]-3-(2-methylcyclohexyl)urea] | induced mitochondrial elongation | specific for the Asp^378 mutant of MFN2 | – | 0.1 to 0.2 µM | – | – | – | – | Mitochondrial elongation in absence of both mitofusins [11]: did not occur in the absence of both of their mitofusin targets
